Data on eleven compounds can be found in ChEMBL document CHEMBL1201862, “PubChem BioAssay data set” (2004).

Among the test systems are 786-0; A498; A549; COLO 205; EKVX; HCT-15; Hs-578T; IGROV-1; K562; KM12; MDA-MB-231; NCI-H522; OVCAR-4; OVCAR-8; RPMI-8226; SF-295; SK-MEL-28; TK-10; UO-31; SR.
Common to all, as to assay: inhibition of tumour cell growth, NCI panel, 48 h

Each structure is given as a SMILES string.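 How tested: cells in 96-well plates exposed to compound for 48 hours at five concentrations. GI50 marks 50% less growth.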 Calls of active or inactive are those of the source. No stated cut-off is given here; in the data, active = GI50 up to about 1.1 µM and inactive = higher. Where a SMILES comes first, the peptide text is derived from it. [ ]: non-standard residue; d: D form. The star is where a group is joined. Chg = N[CH](C(=O)O)C1CCCCC1; Cbz = O=C(OCc1ccccc1)*; OBn = c1ccc(CO*)cc1 A value given as a limit tells only on which side of the number the result lay.

As for `[N-]=[N+]=NC(c1ccccc1)(c1ccccc1)c1ccccc1`, the GI50 in the assay with 786-0 is 17.1 µM (inactive); in the assay with A498 it was 17.3 µM (inactive); with A549, 17 µM (inactive); in the assay on COLO 205 it was 14.6 µM (inactive); in the assay with EKVX, 14.2 µM (inactive); with HCT-15 it was 18.1 µM. In addition, the GI50 with Hs-578T is 22.8 µM (inactive); in the assay with IGROV-1, 25 µM (inactive); in the assay with K562, 14.8 µM (inactive); in the assay with KM12, 18.2 µM (inactive); with MDA-MB-231 it was 16.5 µM (inactive); in the assay on NCI-H522 it was 16.5 µM (inactive). In addition, the GI50 in the assay on OVCAR-4 is 20.3 µM (inactive); with OVCAR-8, 17.3 µM (inactive); in the assay on RPMI-8226, 19.3 µM (inactive); in the assay with SF-295, 12.1 µM (inactive); with SK-MEL-28, 18.4 µM (inactive); with TK-10 it was 17.5 µM (inactive). For the same compound, the GI50 in the assay on UO-31 was 16 µM (inactive).

For the compound `CCOC(=O)Cn1c(=O)c2nc(SC)sc2n(-c2ccccc2)c1=S`, the GI50 in the assay on 786-0 is 12.1 µM (inactive); in the assay with A549 it was 82.2 µM (inactive); with COLO 205 it was 42.1 µM (inactive); in the assay with HCT-15, 52 µM; with Hs-578T it was 4.18 µM (inactive); in the assay on IGROV-1 it was 3.05 µM (inactive). Moreover, the GI50 was > 100 µM (inactive) in the assay on K562; 25.8 µM (inactive) with KM12; 22.3 µM (inactive) in the assay on MDA-MB-231; 68.1 µM (inactive) in the assay with NCI-H522; 15.3 µM (inactive) in the assay on OVCAR-4; 43.9 µM (inactive) in the assay with OVCAR-8. The GI50 is > 100 µM (inactive) in the assay on RPMI-8226; 32.5 µM (inactive) in the assay with SF-295; 96.6 µM (inactive) with SK-MEL-28; > 100 µM (inactive) in the assay with SR; 30.3 µM (inactive) in the assay with TK-10; 4.43 µM (inactive) in the assay with UO-31.

In the case of `COc1cc(C)cc(C(=O)OCc2ccccc2)c1C1=C(Cl)C(=O)C(Cl)=CC1=O`, the GI50 with 786-0 is > 5.71 µM (inactive); in the assay with A549, > 10 µM (inactive); in the assay with COLO 205, > 6.14 µM (inactive); in the assay on EKVX it was > 10 µM (inactive); in the assay with HCT-15, over 10 µM; with Hs-578T it was > 10 µM (inactive). The GI50 in the assay on IGROV-1 was > 10 µM (inactive); in the assay on K562 it was 2.27 µM (inactive); with KM12, > 10 µM (inactive); with MDA-MB-231 it was > 10 µM (inactive); in the assay with NCI-H522, 2.05 µM (inactive); in the assay on OVCAR-4, > 5.13 µM (inactive). For the same compound, the GI50 with OVCAR-8 was > 10 µM (inactive); in the assay on RPMI-8226, > 5.79 µM (inactive); with SF-295, > 10 µM (inactive); in the assay with SK-MEL-28 it was > 10 µM (inactive); in the assay on SR it was 4.13 µM (inactive); in the assay on TK-10, > 10 µM (inactive). Moreover, the GI50 with UO-31 was 3.25 µM (inactive).

As for `CN1COCc2cc3cc4c(cc3nc21)OCCO4`, the GI50 is > 100 µM (inactive) with 786-0; > 100 µM (inactive) in the assay with A498; > 100 µM (inactive) with A549; > 100 µM (inactive) with COLO 205; > 100 µM (inactive) with EKVX; over 100 µM in the assay with HCT-15. Moreover, the GI50 in the assay on Hs-578T is 0.0452 µM (active); in the assay with IGROV-1, 55 µM (inactive); in the assay with K562 it was > 100 µM (inactive); with KM12, 41.5 µM (inactive); with MDA-MB-231, > 100 µM (inactive); in the assay on NCI-H522, > 100 µM (inactive). In addition, the GI50 in the assay with OVCAR-4 was > 100 µM (inactive); with OVCAR-8 it was > 100 µM (inactive); with RPMI-8226, 4.72 µM (inactive); in the assay with SF-295, > 100 µM (inactive); in the assay on TK-10, > 100 µM (inactive).

With `COc1ccc(/N=c2/oc3ccccc3cc2C(N)=O)cc1`, the GI50 is 23.7 µM (inactive) in the assay with 786-0; 42 µM (inactive) in the assay with A549; > 100 µM (inactive) in the assay with COLO 205; > 100 µM (inactive) in the assay on EKVX; over 100 µM with HCT-15; 18.7 µM (inactive) with Hs-578T. Further, the GI50 in the assay on IGROV-1 is 24.5 µM (inactive); in the assay with K562, > 100 µM (inactive); with KM12, 43.3 µM (inactive); in the assay on MDA-MB-231, 30.5 µM (inactive); in the assay on NCI-H522, 13.4 µM (inactive); in the assay on OVCAR-8 it was 27.4 µM (inactive). Moreover, the GI50 is > 100 µM (inactive) in the assay with RPMI-8226; 26.3 µM (inactive) with SF-295; > 100 µM (inactive) in the assay with SK-MEL-28; > 100 µM (inactive) in the assay with SR; 22.5 µM (inactive) in the assay on TK-10; 2.33 µM (inactive) with UO-31.

In the case of `C=C1C[C@H](O)[C@H]2C(C[Se]c3ccccc3)C(=O)O[C@@H]2[C@H]2[C@H](C)C(O)C[C@@H]12` (some centres not stated), the GI50 is 33 µM (inactive) in the assay with 786-0; 44.2 µM (inactive) with A549; 50.7 µM (inactive) with COLO 205; 33.7 µM (inactive) in the assay with EKVX; 13.8 µM with HCT-15; 32.8 µM (inactive) with Hs-578T. Further, the GI50 with IGROV-1 is 25.3 µM (inactive); in the assay on K562, 36.6 µM (inactive); in the assay with KM12 it was 40 µM (inactive); in the assay with MDA-MB-231, 14.8 µM (inactive); with NCI-H522, 17.5 µM (inactive); in the assay on OVCAR-4 it was 38.1 µM (inactive). For the same compound, the GI50 is 41.8 µM (inactive) in the assay on OVCAR-8; 23.9 µM (inactive) with RPMI-8226; 75.9 µM (inactive) in the assay with SF-295; 76.2 µM (inactive) in the assay on SK-MEL-28; 23.4 µM (inactive) in the assay with SR; 56.9 µM (inactive) with TK-10. Besides, the GI50 in the assay on UO-31 was 22.8 µM (inactive).

With `COc1ccc2nc3n(c2c1)CCc1cc(OC)c(OC)cc1-3`, the GI50 with 786-0 is 49.8 µM (inactive); in the assay with A498, 68.7 µM (inactive); in the assay on A549 it was 44.5 µM (inactive); in the assay with COLO 205, 26.1 µM (inactive); with EKVX, 42.4 µM (inactive); in the assay on HCT-15, 33.5 µM. Also, the GI50 in the assay on Hs-578T is 85.7 µM (inactive); with K562 it was 37.9 µM (inactive); with KM12, 30 µM (inactive); with MDA-MB-231, > 100 µM (inactive); in the assay with NCI-H522 it was 32.2 µM (inactive); with OVCAR-4 it was 34.8 µM (inactive). The GI50 is 41.6 µM (inactive) with OVCAR-8, 50.9 µM (inactive) in the assay with SF-295, 78 µM (inactive) in the assay with SK-MEL-28 and 86.3 µM (inactive) in the assay with TK-10.

For the compound `O=C1C=CN(C2OC(CO)C(O)C2O)C(=O)C1` (configuration not stated), the GI50 is 13.3 µM (inactive) with 786-0; 867 µM (inactive) in the assay on A498; 17.8 µM (inactive) with A549; 27.1 µM (inactive) in the assay with COLO 205; > 2500 µM (inactive) in the assay on EKVX; 17.9 µM in the assay on HCT-15. Moreover, the GI50 with Hs-578T is 126 µM (inactive); in the assay on IGROV-1, 223 µM (inactive); in the assay with K562, 1.58 µM (inactive); in the assay with MDA-MB-231, 363 µM (inactive); in the assay with RPMI-8226 it was 5.47 µM (inactive); with SR, 5.42 µM (inactive). Also, the GI50 in the assay on TK-10 was 2210 µM (inactive); in the assay on UO-31, 29.7 µM (inactive).

As to `CN1/C(=C\N=O)C(C)(C)N(O)C1(C)C`, the GI50 in the assay on 786-0 was > 100 µM (inactive); with A549, > 100 µM (inactive); with COLO 205, > 100 µM (inactive); in the assay on EKVX, > 100 µM (inactive); with HCT-15, over 100 µM; in the assay with Hs-578T, > 100 µM (inactive). The GI50 in the assay with IGROV-1, in the assay on K562, in the assay with KM12, in the assay on MDA-MB-231, in the assay on NCI-H522 and in the assay on OVCAR-4 was > 100 µM (inactive) throughout. Moreover, the GI50 in the assay with OVCAR-8, in the assay with RPMI-8226, in the assay with SF-295, with SK-MEL-28, in the assay on SR and in the assay on TK-10 was > 100 µM (inactive) each time. Moreover, in the assay with UO-31, the GI50 was > 100 µM (inactive).

On to `COC(=O)C(NC(=O)C(CC(=O)OCc1ccccc1)NC(=O)OCc1ccccc1)C1CCCCC1` (configuration not stated) (Cbz-Asp(OBn)-[Chg]-OMe; configuration not given here), for which the GI50 was > 100 µM (inactive) in the assay on 786-0; > 100 µM (inactive) in the assay on A549; > 100 µM (inactive) in the assay with COLO 205; > 100 µM (inactive) in the assay on EKVX; over 100 µM in the assay with HCT-15; < 0.01 µM (active) with Hs-578T. Further, the GI50 in the assay with IGROV-1 was > 100 µM (inactive); in the assay on K562 it was > 100 µM (inactive); with KM12, > 100 µM (inactive); in the assay on MDA-MB-231 it was 84.3 µM (inactive); in the assay with NCI-H522, > 100 µM (inactive); in the assay on OVCAR-4, > 100 µM (inactive). Besides, the GI50 was > 100 µM (inactive) in the assay with OVCAR-8; 48.2 µM (inactive) in the assay on RPMI-8226; 67.3 µM (inactive) with SF-295; > 100 µM (inactive) in the assay on SK-MEL-28; 59 µM (inactive) with SR; > 100 µM (inactive) with TK-10. For the same compound, the GI50 in the assay with UO-31 was 69.7 µM (inactive).

For the compound `CC(=O)OC(C)(C)/C=C/C(=O)[C@](C)(O)[C@H]1[C@H](O)C[C@@]2(C)[C@@H]3CC=C4[C@@H](C=C(O)C(=O)C4(C)C)[C@]3(C)C(=O)C[C@]12C` [CUCURBITACIN E], the GI50 in the assay on 786-0 is 0.0339 µM (active); in the assay with A498, 0.0247 µM (active); in the assay with A549 it was 0.0296 µM (active); with COLO 205, 0.0191 µM (active); in the assay with EKVX, 0.118 µM (active); in the assay with HCT-15, 0.0278 µM. Moreover, the GI50 in the assay on Hs-578T was 0.0473 µM (active); in the assay on IGROV-1, 0.0366 µM (active); with K562 it was 0.0681 µM (active); with KM12 it was 0.504 µM (active); in the assay with MDA-MB-231, 0.0537 µM (active); in the assay with NCI-H522, 0.0407 µM (active). Moreover, the GI50 was 0.0305 µM (active) with OVCAR-4; 0.166 µM (active) in the assay with OVCAR-8; 0.041 µM (active) in the assay on RPMI-8226; 0.0348 µM (active) in the assay on SF-295; 0.024 µM (active) in the assay with SK-MEL-28; 0.0479 µM (active) with TK-10. Besides, the GI50 in the assay on UO-31 was 0.0235 µM (active).
